According to patent publication US11739074B2, “Ras inhibitors” (Revolution Medicines, Inc., priority 2019, dated 2023):
Like-named read-outs stand apart in the source and are kept apart here.

Experiments:
AsPC-1 (K-Ras G12D) [1] = assay: CellTiter-Glo cell viability assay, AsPC-1; format: cell-based; conditions: Homo sapiens, ASPC1, 120 h
Method in brief: (§1)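 Test compounds were dispensed directly onto seeded cells, and on day 5 plates were brought to room temperature for about 30 minutes before CellTiter-Glo luminescence was read. Signals were expressed as percent of the mean DMSO control and fitted with a four-parameter logistic model.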

KRAS G12D = KRAS G12D (Homo sapiens, UniProt P01116+P62937, G12D); assay: Ras-Raf disruption/FRET/MOA assay, KRAS G12D; format: biochemical
Sequence of KRAS G12D (P01116 1-169 isoform P01116-2 G12D limits assumed): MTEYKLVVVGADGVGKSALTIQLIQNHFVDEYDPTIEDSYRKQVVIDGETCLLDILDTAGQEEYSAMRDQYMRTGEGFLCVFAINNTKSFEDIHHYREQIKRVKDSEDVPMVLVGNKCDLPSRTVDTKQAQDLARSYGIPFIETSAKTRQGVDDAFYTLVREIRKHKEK
Sequence of KRAS G12D (P62937 whole entry, the tested form may be a part): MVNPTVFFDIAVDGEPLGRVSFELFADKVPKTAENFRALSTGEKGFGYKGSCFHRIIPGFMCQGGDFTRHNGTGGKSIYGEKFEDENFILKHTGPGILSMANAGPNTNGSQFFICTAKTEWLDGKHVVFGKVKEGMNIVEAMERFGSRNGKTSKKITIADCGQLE
Excerpt: (§2) Disruption of B-Raf Ras-Binding Domain (BRAF^RBD) Interaction with K-Ras by Compounds of the Invention (Also Called a FRET Assay or an MOA Assay)
(§3) Note—The following protocol describes a procedure for monitoring disruption of K-Ras G12C (GMP-PNP) binding to BRAF^RBD by a compound of the invention. This protocol may also be executed substituting other Ras proteins or nucleotides, such as K-Ras G12D and K-Ras G13D.
(§4) The purpose of this biochemical assay was to measure the ability of test compounds to facilitate ternary complex formation between a nucleotide-loaded K-Ras isoform and Cyclophilin A; the resulting ternary complex disrupts binding to a BRAF^RBD construct, inhibiting K-Ras signaling through a RAF effector.
(§5) In assay buffer containing 25 mM HEPES pH 7.3, 0.002% Tween20, 0.1% BSA, 100 mM NaCl and 5 mM MgCl2, tagless Cyclophilin A, His6-K-Ras-GMPPNP, and GST-BRAF^RBD were combined in a 384-well assay plate at final concentrations of 25 μM, 12.5 nM, and 50 nM, respectively. Compound was present in plate wells as a 10-point 3-fold dilution series starting at a final concentration of 30 μM. After incubation at 25° C. for 3 hours, a mixture of anti-His Eu-W1024 and anti-GST allophycocyanin was then added to assay sample wells at final concentrations of 10 nM and 50 nM, respectively, and the reaction incubated for an additional 1.5 hours. […] Compounds that facilitate disruption of a K-Ras:RAF complex were identified as those eliciting a decrease in the TR-FRET ratio relative to DMSO control wells.

NCI-H358 (K-Ras G12C) = assay: CellTiter-Glo cell viability assay, H358; format: cell-based; conditions: Homo sapiens, NCI-H358, 120 h, read-out: H358 Cell Viability IC50
Method in brief: as §1

KRAS G13D = KRAS G13D (Homo sapiens, UniProt P01116+P62937, G13D); assay: Ras-Raf disruption/FRET/MOA assay, KRAS G13D; format: biochemical
Sequence of KRAS G13D (P01116 1-169 isoform P01116-2 G13D limits assumed): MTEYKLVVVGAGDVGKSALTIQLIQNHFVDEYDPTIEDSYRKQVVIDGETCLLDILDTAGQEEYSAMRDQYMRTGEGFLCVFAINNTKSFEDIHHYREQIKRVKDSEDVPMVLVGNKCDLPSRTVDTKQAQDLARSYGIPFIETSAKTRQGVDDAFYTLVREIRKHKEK
Sequence of KRAS G13D (P62937 whole entry): as the sequence (P62937 whole entry, the tested form may be a part) above
Excerpt: as §2, §3, §4, §5

KRAS G12S = KRAS G12S (Homo sapiens, UniProt P01116+P62937, G12S); assay: Ras-Raf disruption/FRET/MOA assay, KRAS G12S; format: biochemical
Sequence of KRAS G12S (P01116 1-169 isoform P01116-2 G12S limits assumed): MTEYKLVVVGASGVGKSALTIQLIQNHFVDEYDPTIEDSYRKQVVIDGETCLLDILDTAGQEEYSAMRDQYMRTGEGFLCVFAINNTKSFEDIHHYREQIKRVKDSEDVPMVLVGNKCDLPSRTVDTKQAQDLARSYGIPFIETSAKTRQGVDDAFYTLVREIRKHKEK
Sequence of KRAS G12S (P62937 whole entry): as the sequence (P62937 whole entry, the tested form may be a part) above
Excerpt: as §2, §3, §4, §5

KRAS G13C = KRAS G13C (Homo sapiens, UniProt P01116+P62937, G13C); assay: Ras-Raf disruption/FRET/MOA assay, KRAS G13C; format: biochemical
Sequence of KRAS G13C (P01116 1-169 isoform P01116-2 G13C limits assumed): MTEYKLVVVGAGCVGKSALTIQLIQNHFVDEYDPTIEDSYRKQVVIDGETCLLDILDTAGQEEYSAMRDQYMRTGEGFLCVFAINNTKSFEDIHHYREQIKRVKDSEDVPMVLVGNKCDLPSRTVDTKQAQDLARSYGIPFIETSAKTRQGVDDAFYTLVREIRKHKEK
Sequence of KRAS G13C (P62937 whole entry): as the sequence (P62937 whole entry, the tested form may be a part) above
Excerpt: as §2, §3, §4, §5

KRAS G12V = KRAS G12V (Homo sapiens, UniProt P01116+P62937, G12V); assay: Ras-Raf disruption/FRET/MOA assay, KRAS G12V; format: biochemical
Sequence of KRAS G12V (P01116 1-169 isoform P01116-2 G12V limits assumed): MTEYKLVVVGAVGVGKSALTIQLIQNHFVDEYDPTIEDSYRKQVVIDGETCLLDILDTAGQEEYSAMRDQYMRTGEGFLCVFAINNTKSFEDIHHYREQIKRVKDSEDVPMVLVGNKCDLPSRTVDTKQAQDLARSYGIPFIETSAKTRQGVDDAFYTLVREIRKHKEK
Sequence of KRAS G12V (P62937 whole entry): as the sequence (P62937 whole entry, the tested form may be a part) above
Excerpt: as §2, §3, §4, §5

KRAS WT = KRAS WT (Homo sapiens, UniProt P01116+P62937); assay: Ras-Raf disruption/FRET/MOA assay, KRAS WT; format: biochemical
Sequence of KRAS WT (P01116 1-169 isoform P01116-2 limits assumed): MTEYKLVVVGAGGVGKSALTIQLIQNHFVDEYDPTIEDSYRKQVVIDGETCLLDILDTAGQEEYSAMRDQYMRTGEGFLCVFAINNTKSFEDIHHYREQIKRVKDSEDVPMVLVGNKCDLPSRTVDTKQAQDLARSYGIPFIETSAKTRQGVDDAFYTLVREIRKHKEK
Sequence of KRAS WT (P62937 whole entry): as the sequence (P62937 whole entry, the tested form may be a part) above
Excerpt: as §2, §3, §4, §5

KRAS G12C = KRAS G12C (Homo sapiens, UniProt P01116+P62937, G12C); assay: Ras-Raf disruption/FRET/MOA assay, KRAS G12C; format: biochemical
Sequence of KRAS G12C (P01116 1-169 isoform P01116-2 G12C limits assumed): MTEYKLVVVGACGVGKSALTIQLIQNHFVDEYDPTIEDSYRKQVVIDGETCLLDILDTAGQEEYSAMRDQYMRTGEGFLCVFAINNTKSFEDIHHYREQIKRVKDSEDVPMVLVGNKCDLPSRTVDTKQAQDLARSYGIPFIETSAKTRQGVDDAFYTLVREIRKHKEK
Sequence of KRAS G12C (P62937 whole entry): as the sequence (P62937 whole entry, the tested form may be a part) above
Excerpt: as §2, §3, §4, §5

NRAS G12C = biological target: T1, NRAS G12C (Homo sapiens, UniProt P01111+P62937, G12C); assay: Ras-Raf disruption/FRET/MOA assay, NRAS G12C; format: biochemical; conditions: NRAS G12C FRET data IC50, NRAS G12C
T1 construct: His6
T1 sequence (P01111 whole entry G12C): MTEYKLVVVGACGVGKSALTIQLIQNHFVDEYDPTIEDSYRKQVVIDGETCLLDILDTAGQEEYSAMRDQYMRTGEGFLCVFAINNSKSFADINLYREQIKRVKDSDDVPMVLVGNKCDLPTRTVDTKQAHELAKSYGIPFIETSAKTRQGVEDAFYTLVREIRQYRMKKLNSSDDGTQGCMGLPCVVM
T1 sequence (P62937 whole entry): as the sequence (P62937 whole entry, the tested form may be a part) above
Excerpt: as §2, §3, §4, §5

AsPC-1 (K-Ras G12D) [2] = assay: Potency assay: pERK in AsPC-1 cells; format: cell-based; conditions: Homo sapiens
[3] = AsPC-1, K-Ras G12D, 5-day treatment, read-out: AsPC-1 Cell Viability IC50
[4] = disruption of BRAF RBD binding, with Cyclophilin A, read-out: KRAS G12D FRET IC50
[5] = NCI-H358, K-Ras G12C, 5-day treatment
[6] = ASPC1, AsPC-1 cells, K-Ras G12D, read-out: pERK EC50 (AsPC-1 KRAS G12D)
[7] = disruption of BRAF RBD binding, with Cyclophilin A, read-out: KRAS G12C FRET IC50
[8] = disruption of BRAF RBD binding, with Cyclophilin A, read-out: KRAS G12V FRET IC50

## CCn1c(-c2cccnc2[C@H](C)OC)c2c3cc(ccc31)-c1cc(O)cc(c1)C[C@H](NC(=O)[C@H](C(C)C)N(C)C(=O)C1CC3(C1)CN(C(=O)[C@H]1CN1)C3)C(=O)N1CCC[C@H](N1)C(=O)OCC(C)(C)C2 [Compound 181]
AsPC-1 (K-Ras G12D) [1]; [3]
  IC50: > 10000 nM
KRAS G12D; [4]
  IC50: 100 to 1000 nM

## CCCN=C=NCCC(=O)N(C)[C@H](C(=O)N[C@H]1Cc2cccc(c2)-c2ccc3c(c2)c(c(-c2cnccc2COC)n3CC)CC(C)(C)COC(=O)[C@@H]2CCCN(N2)C1=O)C(C)C [22 A and B]
NCI-H358 (K-Ras G12C); [5]
  IC50: 1000 to 10000 nM
AsPC-1 (K-Ras G12D) [1]; [3]
  IC50: 1000 to 10000 nM
KRAS G12D; [4]
  IC50: 1000 to 10000 nM

## CCn1c(-c2cnccc2COC)c2c3cc(ccc31)-c1cc(O)cc(c1)C[C@H](NC(=O)[C@H](C(C)C)N(C)C(=O)CN(C)C(=O)[C@H]1N[C@H]1c1ccccc1)C(=O)N1CCC[C@H](N1)C(=O)OCC(C)(C)C2 [Compound 116]
AsPC-1 (K-Ras G12D) [1]; read-out: AsPC-1 Cell Viability IC50, AsPC-1, K-Ras G12D, 5-day treatment
  IC50: > 10000 nM
KRAS G13D
  IC50: 100 to 1000 nM
KRAS G12S
  IC50: 100 to 1000 nM
KRAS G13C
  IC50: 100 to 1000 nM
KRAS G12V
  IC50: 100 to 1000 nM
KRAS G12D
  IC50: 1000 to 10000 nM
KRAS WT
  IC50: 10 to 100 nM
KRAS G12C
  IC50: 100 to 1000 nM
NRAS G12C
  IC50: 100 to 1000 nM

## CCn1c(-c2cccnc2[C@H](C)OC)c2c3cc(ccc31)-c1csc(n1)C[C@H](NC(=O)[C@H](C(C)C)N(C)C(=O)N1CC(N(C)C(=O)[C@H]3CN3)C1)C(=O)N1CCC[C@H](N1)C(=O)OCC(C)(C)C2 (atropisomer, axis not shown) [Compound 218]
AsPC-1 (K-Ras G12D) [2]; [6]
  EC50: < 5000 nM
AsPC-1 (K-Ras G12D) [1]; [3]
  IC50: 1000 to 10000 nM
KRAS G12C; [7]
  IC50: 100 to 1000 nM

## CCn1c(-c2cnccc2COC)c2c3cc(ccc31)-c1cc(O)cc(c1)C[C@H](NC(=O)[C@H](C(C)C)N(C)C(=O)CN(C)C(=O)C1CN1)C(=O)N1CCC[C@H](N1)C(=O)OCC(C)(C)C2 (stereo partly shown) [Compound 33]
AsPC-1 (K-Ras G12D) [2]; ASPC1, read-out: pERK EC50 (AsPC-1 KRAS G12D)
  EC50: < 5000 nM
KRAS G13D
  IC50: 100 to 1000 nM
KRAS G12S
  IC50: 10 to 100 nM
KRAS G13C
  IC50: 100 to 1000 nM
KRAS G12V
  IC50: 100 to 1000 nM
KRAS G12D
  IC50: 100 to 1000 nM
KRAS WT
  IC50: 100 to 1000 nM
NRAS G12C
  IC50: 10 to 100 nM

## CCn1c(-c2cnccc2COC)c2c3cc(ccc31)-c1cccc(c1)C[C@H](NC(=O)[C@H](C(C)C)N(C)C(=O)CCN=C=NCCCN1CCOCC1)C(=O)N1CCC[C@H](N1)C(=O)OCC(C)(C)C2 [17 A and B]
AsPC-1 (K-Ras G12D) [2]; [6]
  EC50: < 5000 nM
NCI-H358 (K-Ras G12C); [5]
  IC50: 1000 to 10000 nM
AsPC-1 (K-Ras G12D) [1]; [3]
  IC50: 1000 to 10000 nM
KRAS G12C; [7]
  IC50: 100 to 1000 nM

## CCn1c(-c2cnccc2COC)c2c3cc(ccc31)-c1cc(O)cc(c1)C[C@H](NC(=O)[C@@H](CN(C)C(=O)[C@H]1CN1)C(C)C)C(=O)N1CCC[C@H](N1)C(=O)OCC(C)(C)C2 [Compound 99]
AsPC-1 (K-Ras G12D) [1]; [3]
  IC50: > 10000 nM
KRAS G12V; [8]
  IC50: > 10000 nM
KRAS G12C; [7]
  IC50: > 10000 nM

## CCn1c(-c2cnccc2COC)c2c3cc(ccc31)-c1cccc(c1)C[C@H](NC(=O)[C@H](C(C)C)N(C)C(=O)CCN=C=Nc1ccccc1COC)C(=O)N1CCC[C@H](N1)C(=O)OCC(C)(C)C2 [Compound 63]
NCI-H358 (K-Ras G12C); [5]
  IC50: 100 to 1000 nM
AsPC-1 (K-Ras G12D) [1]; [3]
  IC50: 1000 to 10000 nM
KRAS G12V; [8]
  IC50: > 10000 nM

## CCn1c(-c2cnccc2COC)c2c3cc(ccc31)-c1cc(O)cc(c1)C[C@H](NC(=O)[C@@H](CCNC(=O)NCCCl)C(C)C)C(=O)N1CCC[C@H](N1)C(=O)OCC(C)(C)C2 [Compound 26]
NCI-H358 (K-Ras G12C)
  IC50: 1000 to 10000 nM
KRAS G12V; [8]
  IC50: > 10000 nM
